Measured values: ChEMBL document CHEMBL1201862, “PubChem BioAssay data set” (2004)
Active and inactive are the calls of the source.

Experiments:
[1] = molecular target: cAMP-dependent protein kinase catalytic subunit alpha (Homo sapiens, UniProt P17612); assay type: functional
[2] = molecular target: Cyclin-dependent kinase 9 (Homo sapiens, UniProt P50750); assay type: functional;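 also: value from the CDK9 entry of a kinome-spanning kinase panel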
[3] = molecular target: Rho-associated protein kinase 1 (Homo sapiens, UniProt Q13464); assay type: functional;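 also: measured within a broad kinome-wide panel profiling many kinases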
[4] = molecular target: Cyclin-dependent kinase 8 (Homo sapiens, UniProt P49336); assay: Navigating the Kinome. Panel member name: CDK8; assay type: functional
Chain of Cyclin-dependent kinase 8 (P49336 whole entry): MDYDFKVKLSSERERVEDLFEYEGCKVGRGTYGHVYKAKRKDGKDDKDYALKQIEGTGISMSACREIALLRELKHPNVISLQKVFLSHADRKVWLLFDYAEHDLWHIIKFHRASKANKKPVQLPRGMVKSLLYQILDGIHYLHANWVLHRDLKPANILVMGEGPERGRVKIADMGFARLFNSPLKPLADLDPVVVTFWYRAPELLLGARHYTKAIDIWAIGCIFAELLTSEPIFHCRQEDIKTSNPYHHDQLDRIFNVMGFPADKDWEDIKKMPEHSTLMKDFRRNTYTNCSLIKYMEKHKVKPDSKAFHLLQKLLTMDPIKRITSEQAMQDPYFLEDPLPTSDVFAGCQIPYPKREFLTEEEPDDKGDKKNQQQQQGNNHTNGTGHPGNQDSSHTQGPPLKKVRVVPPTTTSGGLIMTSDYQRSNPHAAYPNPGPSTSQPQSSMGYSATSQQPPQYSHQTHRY

[5] = molecular target: Dual specificity protein kinase CLK4 (Homo sapiens, UniProt Q9HAZ1); assay type: functional
[6] = molecular target: Platelet-derived growth factor receptor alpha (Homo sapiens, UniProt P16234); assay: Navigating the Kinome. Panel member name: PDGFRA; assay type: functional
Chain of Platelet-derived growth factor receptor alpha (P16234 whole entry): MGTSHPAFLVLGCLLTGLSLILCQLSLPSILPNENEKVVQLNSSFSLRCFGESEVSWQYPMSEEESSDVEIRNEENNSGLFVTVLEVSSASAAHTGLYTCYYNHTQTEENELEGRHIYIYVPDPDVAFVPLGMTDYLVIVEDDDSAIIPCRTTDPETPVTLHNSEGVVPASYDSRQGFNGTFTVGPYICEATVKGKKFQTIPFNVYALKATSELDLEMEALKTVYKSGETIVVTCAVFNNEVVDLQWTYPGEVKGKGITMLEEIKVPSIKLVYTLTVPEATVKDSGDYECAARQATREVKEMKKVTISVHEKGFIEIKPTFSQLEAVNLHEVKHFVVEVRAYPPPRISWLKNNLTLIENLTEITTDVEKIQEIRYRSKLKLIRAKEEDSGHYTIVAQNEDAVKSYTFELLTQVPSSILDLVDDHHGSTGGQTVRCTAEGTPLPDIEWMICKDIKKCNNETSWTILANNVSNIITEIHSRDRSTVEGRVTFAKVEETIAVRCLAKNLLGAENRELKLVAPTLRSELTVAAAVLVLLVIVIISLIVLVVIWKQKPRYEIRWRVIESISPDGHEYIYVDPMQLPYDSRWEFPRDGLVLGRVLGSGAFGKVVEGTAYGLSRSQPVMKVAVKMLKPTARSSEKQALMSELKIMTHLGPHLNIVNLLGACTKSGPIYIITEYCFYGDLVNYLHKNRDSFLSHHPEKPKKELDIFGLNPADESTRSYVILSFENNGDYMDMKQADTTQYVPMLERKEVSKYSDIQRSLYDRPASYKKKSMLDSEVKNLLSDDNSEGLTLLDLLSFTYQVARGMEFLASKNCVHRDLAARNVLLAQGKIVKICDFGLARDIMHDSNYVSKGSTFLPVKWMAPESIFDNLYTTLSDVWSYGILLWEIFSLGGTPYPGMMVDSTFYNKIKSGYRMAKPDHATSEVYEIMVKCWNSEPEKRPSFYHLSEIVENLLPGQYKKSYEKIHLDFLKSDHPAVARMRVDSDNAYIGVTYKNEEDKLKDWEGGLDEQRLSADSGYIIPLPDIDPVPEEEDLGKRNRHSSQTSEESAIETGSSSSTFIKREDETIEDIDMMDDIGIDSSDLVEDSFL

[7] = molecular target: Vascular endothelial growth factor receptor 2 (Homo sapiens, UniProt P35968); assay type: functional
[8] = molecular target: Dual specificity tyrosine-phosphorylation-regulated kinase 1B (Homo sapiens, UniProt Q9Y463); assay: Navigating the Kinome. Panel member name: DYRK1B; assay type: functional
Chain of Dual specificity tyrosine-phosphorylation-regulated kinase 1B (Q9Y463 whole entry): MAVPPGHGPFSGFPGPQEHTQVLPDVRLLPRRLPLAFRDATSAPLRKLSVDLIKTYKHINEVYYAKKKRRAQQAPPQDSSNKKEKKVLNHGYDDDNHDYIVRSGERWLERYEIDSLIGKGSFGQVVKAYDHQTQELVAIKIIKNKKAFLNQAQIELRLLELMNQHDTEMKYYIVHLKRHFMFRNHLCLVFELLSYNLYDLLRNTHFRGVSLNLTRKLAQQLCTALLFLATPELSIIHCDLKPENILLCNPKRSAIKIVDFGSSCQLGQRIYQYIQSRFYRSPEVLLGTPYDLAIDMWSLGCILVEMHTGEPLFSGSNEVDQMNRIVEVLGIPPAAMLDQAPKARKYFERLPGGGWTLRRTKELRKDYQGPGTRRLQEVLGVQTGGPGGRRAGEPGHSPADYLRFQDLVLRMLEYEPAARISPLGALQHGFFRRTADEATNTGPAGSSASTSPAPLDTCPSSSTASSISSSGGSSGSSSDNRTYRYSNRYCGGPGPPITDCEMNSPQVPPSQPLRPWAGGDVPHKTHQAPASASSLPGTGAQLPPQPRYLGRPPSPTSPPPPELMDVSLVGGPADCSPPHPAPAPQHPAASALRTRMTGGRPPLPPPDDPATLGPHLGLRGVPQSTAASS

Focal adhesion kinase 1 = Focal adhesion kinase 1 (Homo sapiens, UniProt Q05397); assay type: functional;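 also: measured as one member of a kinome panel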
Aurora kinase A = Aurora kinase A (Homo sapiens, UniProt O14965); assay type: functional;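 also: value from the Navigating the Kinome kinase panel profiling, panel entry STK6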
[9] = molecular target: Serine/threonine-protein kinase Chk1 (Homo sapiens, UniProt O14757); assay type: functional;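 also: measured as one member of a kinome-wide kinase profiling panel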
[10] = molecular target: Proto-oncogene tyrosine-protein kinase receptor Ret (Homo sapiens, UniProt P07949); assay type: functional;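 also: measured within a kinome-wide profiling panel, RET as the panel member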
[11] = molecular target: Tyrosine-protein kinase receptor TYRO3 (Homo sapiens, UniProt Q06418); assay type: functional;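 also: TYRO3 value obtained as one member of a kinome-wide profiling panel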
[12] = molecular target: Platelet-derived growth factor receptor beta (Homo sapiens, UniProt P09619); assay type: functional;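 also: value comes from a kinome panel, with PDGFRB tested as one panel member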
Activated CDC42 kinase 1 = Activated CDC42 kinase 1 (Homo sapiens, UniProt Q07912); assay: Navigating the Kinome. Panel member name: ACK1; assay type: functional
[13] = molecular target: Tyrosine-protein kinase ABL1 (Homo sapiens, UniProt P00519); assay type: functional
[14] = molecular target: Dual specificity tyrosine-phosphorylation-regulated kinase 1A (Homo sapiens, UniProt Q13627); assay type: functional;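 also: measured against DYRK1A as one member of a broad kinome profiling panel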
[15] = molecular target: Mitogen-activated protein kinase kinase kinase kinase 4 (Homo sapiens, UniProt O95819); assay type: functional
Chain of Mitogen-activated protein kinase kinase kinase kinase 4 (O95819 whole entry): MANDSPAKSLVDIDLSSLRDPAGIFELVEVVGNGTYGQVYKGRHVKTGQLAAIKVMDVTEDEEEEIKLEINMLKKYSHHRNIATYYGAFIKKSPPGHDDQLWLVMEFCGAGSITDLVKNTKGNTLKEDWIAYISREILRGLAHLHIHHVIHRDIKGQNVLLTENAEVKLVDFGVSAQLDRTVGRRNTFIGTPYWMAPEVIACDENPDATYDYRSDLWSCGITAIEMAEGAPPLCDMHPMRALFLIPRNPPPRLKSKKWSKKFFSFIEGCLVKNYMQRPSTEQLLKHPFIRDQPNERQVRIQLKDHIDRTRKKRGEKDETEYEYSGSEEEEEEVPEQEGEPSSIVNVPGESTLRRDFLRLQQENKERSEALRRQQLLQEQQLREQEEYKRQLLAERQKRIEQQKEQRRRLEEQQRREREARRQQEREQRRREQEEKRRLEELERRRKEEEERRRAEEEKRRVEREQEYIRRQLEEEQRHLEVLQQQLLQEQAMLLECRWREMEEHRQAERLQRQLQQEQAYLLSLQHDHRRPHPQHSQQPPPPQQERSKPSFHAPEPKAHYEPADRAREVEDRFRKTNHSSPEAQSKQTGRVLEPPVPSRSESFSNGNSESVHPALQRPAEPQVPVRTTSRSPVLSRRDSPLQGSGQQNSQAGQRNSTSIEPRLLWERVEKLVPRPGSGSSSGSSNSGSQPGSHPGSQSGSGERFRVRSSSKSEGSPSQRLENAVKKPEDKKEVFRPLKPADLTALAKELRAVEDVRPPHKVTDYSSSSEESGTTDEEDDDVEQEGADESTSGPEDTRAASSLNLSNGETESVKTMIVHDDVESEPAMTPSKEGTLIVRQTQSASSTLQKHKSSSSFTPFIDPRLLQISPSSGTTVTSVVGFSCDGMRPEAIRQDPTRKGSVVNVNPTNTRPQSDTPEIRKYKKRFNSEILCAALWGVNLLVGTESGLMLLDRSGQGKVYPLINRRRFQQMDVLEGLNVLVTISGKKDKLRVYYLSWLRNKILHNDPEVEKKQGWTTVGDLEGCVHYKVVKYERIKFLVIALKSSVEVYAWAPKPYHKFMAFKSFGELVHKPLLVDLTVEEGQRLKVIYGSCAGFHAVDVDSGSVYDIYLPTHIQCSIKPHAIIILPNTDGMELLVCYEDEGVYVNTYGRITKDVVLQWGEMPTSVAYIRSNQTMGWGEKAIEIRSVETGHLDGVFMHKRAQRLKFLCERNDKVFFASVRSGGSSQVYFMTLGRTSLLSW

[16] = molecular target: Fibroblast growth factor receptor 1 (Homo sapiens, UniProt P11362); assay type: functional
[17] = molecular target: Hepatocyte growth factor receptor (Homo sapiens, UniProt P08581); assay type: functional;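 also: kinase panel profiling across the kinome, with MET as the panel member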
[18] = molecular target: Calcium/calmodulin-dependent protein kinase type II subunit alpha (Homo sapiens, UniProt Q9UQM7); assay: Navigating the Kinome. Panel member name: CAMK2A; assay type: functional
[19] = molecular target: Cyclin-dependent kinase 5 (Homo sapiens, UniProt Q00535); assay type: functional;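 also: CDK5 measured as one member of a kinase profiling panel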
[20] = molecular target: Casein kinase I isoform alpha (Homo sapiens, UniProt P48729); assay type: functional
[21] = molecular target: Serine/threonine-protein kinase Nek2 (Homo sapiens, UniProt P51955); assay type: functional
[22] = molecular target: Protein kinase C theta type (Homo sapiens, UniProt Q04759); assay: Navigating the Kinome. Panel member name: PRKCQ; assay type: functional
[23] = molecular target: G protein-coupled receptor kinase 5 (Homo sapiens, UniProt P34947); assay: Navigating the Kinome. Panel member name: GPRK5; assay type: functional
[24] = molecular target: Leukocyte tyrosine kinase receptor (Homo sapiens, UniProt P29376); assay: Navigating the Kinome. Panel member name: LTK; assay type: functional
[25] = molecular target: Vascular endothelial growth factor receptor 1 (Homo sapiens, UniProt P17948); assay type: functional;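 also: measured within a kinome-wide profiling panel, FLT1 as the panel member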
Aurora kinase B = Aurora kinase B (Homo sapiens, UniProt Q96GD4); assay type: functional
[26] = molecular target: Macrophage colony-stimulating factor 1 receptor (Homo sapiens, UniProt P07333); assay type: functional;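 also: value comes from the Navigating the Kinome screening panel, CSF1R member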
[27] = molecular target: Inhibitor of nuclear factor kappa-B kinase subunit epsilon (Homo sapiens, UniProt Q14164); assay: Navigating the Kinome. Panel member name: IKBKE; assay type: functional
[28] = molecular target: Dual specificity mitogen-activated protein kinase kinase 1 (Homo sapiens, UniProt Q02750); assay: Navigating the Kinome. Panel member name: MAP2K1; assay type: functional
[29] = molecular target: DNA dC->dU-editing enzyme APOBEC-3G (Homo sapiens, UniProt Q9HC16); assay: inhibition of APOBEC3G ssDNA deamination – biochemical, fluorescence, single-stranded DNA substrate, SAR follow-up (AID 602136); assay type: functional; settings: read-out: IC50_Mean
[30] = molecular target: DNA dC->dU-editing enzyme APOBEC-3A (Homo sapiens, UniProt P31941); assay: SAR analysis of small molecule inhibitors of APOBEC3A DNA Deaminase via a fluorescence-based single-stranded DNA deaminase assay.; assay type: functional; settings: read-out: IC50_Mean
Beta-lactamase [31] = molecular target: Beta-lactamase (Pseudomonas aeruginosa, UniProt Q79MP6);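 also: biochemical dose-response test of metallo-beta-lactamase enzyme inhibition, read out by epi-absorbance; purified recombinant IMP-1 metallo-beta-lactamase with nitrocefin as substrate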
Beta-lactamase [32] = molecular target: Beta-lactamase (Salmonella choleraesuis (strain SC-B67), UniProt Q5J463)
Chain of Beta-lactamase (Salmonella choleraesuis (strain SC-B67), UniProt Q5J463) (Q5J463 whole entry): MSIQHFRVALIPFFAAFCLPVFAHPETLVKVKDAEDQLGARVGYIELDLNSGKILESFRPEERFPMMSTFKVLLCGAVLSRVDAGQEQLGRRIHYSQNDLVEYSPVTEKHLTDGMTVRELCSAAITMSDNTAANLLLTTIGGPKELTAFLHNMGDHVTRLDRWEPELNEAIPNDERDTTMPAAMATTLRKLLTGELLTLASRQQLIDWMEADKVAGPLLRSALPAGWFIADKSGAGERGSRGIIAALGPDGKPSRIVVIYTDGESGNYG

[33] = molecular target: T1, Botulinum neurotoxin type A (Clostridium botulinum (strain Hall / ATCC 3502 / NCTC 13319 / Type A), UniProt P0DPI1); assay: High-throughput multiplex microsphere dose response for inhibitors of toxin protease, specifically Botulinum neurotoxin light chain A protease, compounds from Powder Set 01.; assay type: functional, Clostridium botulinum A str. ATCC 3502; settings: read-out: EC50_MICROM
T1 sequence (P0DPI1 2-448 limits assumed): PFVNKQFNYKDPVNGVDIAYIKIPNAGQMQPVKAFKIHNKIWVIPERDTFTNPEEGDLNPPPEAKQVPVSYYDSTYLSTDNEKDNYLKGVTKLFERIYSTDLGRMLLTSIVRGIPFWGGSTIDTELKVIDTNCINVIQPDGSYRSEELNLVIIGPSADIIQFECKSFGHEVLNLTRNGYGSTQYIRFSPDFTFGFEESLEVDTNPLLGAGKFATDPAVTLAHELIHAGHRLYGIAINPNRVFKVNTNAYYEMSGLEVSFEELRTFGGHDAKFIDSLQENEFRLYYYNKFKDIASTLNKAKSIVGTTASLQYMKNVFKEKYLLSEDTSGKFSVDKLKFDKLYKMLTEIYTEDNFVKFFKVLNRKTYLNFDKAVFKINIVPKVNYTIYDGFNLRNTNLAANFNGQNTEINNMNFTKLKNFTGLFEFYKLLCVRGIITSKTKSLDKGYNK

[34] = molecular target: T2, Botulinum neurotoxin type F (Clostridium botulinum, UniProt P30996); assay: High-throughput multiplex microsphere dose response for inhibitors of toxin protease, specifically Botulinum neurotoxin light chain F protease, compounds from Cherry Pick 01.; assay type: functional; settings: read-out: EC50_MICROM
T2 sequence (P30996 1-436 limits assumed): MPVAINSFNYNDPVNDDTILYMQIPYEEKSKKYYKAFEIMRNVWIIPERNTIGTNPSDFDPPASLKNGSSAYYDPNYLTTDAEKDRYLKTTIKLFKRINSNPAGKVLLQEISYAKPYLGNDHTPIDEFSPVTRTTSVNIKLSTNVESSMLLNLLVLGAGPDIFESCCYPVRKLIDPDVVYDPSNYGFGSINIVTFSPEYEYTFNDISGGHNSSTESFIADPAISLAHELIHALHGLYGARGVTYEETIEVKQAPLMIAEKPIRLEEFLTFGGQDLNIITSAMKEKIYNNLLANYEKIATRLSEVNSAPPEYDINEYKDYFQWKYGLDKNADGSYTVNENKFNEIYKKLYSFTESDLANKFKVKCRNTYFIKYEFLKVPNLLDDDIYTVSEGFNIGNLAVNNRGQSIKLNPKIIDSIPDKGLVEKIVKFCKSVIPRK

[35] = molecular target: T1, Botulinum neurotoxin type A; assay: High-throughput multiplex microsphere dose response for inhibitors of toxin protease, specifically Botulinum neurotoxin light chain A protease, compounds from Cherry Pick 01.; assay type: functional; settings: read-out: EC50_MICROM
[36] = molecular target: T1, Botulinum neurotoxin type A; assay: High-throughput multiplex microsphere dose response for inhibitors of toxin protease, specifically Botulinum neurotoxin light chain A protease, compounds from Cherry Pick 02.; assay type: functional; settings: read-out: EC50_MICROM
[37] = molecular target: T2, Botulinum neurotoxin type F; assay: High-throughput multiplex microsphere dose response for inhibitors of toxin protease, specifically Botulinum neurotoxin light chain F protease, compounds from Cherry Pick 02.; assay type: functional; settings: read-out: EC50_MICROM
[38] = molecular target: T3, G-protein coupled receptor 55 (Homo sapiens, UniProt Q9Y2T6); assay: selective activators of receptor GPR55 – imaging, U2OS cells, beta-arrestin-GFP redistribution, primary screen (AID 1961); assay type: functional
T3 sequence (Q9Y2T6 whole entry): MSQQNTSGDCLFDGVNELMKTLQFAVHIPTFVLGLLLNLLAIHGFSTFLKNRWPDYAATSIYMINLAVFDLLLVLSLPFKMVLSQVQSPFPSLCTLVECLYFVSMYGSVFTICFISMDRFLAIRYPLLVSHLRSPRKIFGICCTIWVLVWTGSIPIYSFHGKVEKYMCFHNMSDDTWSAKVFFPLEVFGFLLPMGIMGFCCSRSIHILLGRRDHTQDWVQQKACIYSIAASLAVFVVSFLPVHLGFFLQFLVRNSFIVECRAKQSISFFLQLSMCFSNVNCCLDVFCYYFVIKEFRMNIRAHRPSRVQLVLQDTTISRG

[39] = molecular target: T1, Botulinum neurotoxin type A; assay: Confirmatory FRET assay using full length substrates for Botulinum neurotoxin light chain A protease, with Powder Set01.; assay type: functional
[40] = molecular target: Interleukin-1 receptor-associated kinase 4 (Homo sapiens, UniProt Q9NWZ3); assay type: functional
[41] = molecular target: Homeodomain-interacting protein kinase 2 (Homo sapiens, UniProt Q9H2X6); assay type: functional;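 also: measured within a kinome-wide kinase profiling panel, HIPK2 being one panel member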
[42] = molecular target: Glycogen synthase kinase-3 beta (Homo sapiens, UniProt P49841); assay type: functional;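 also: value comes from a broad kinome profiling panel, with GSK3B as the panel member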
HEK293 [43] = assay: optical interference in Abeta FP readout, dose response, artefact control for IDE activator project, biochemical, fluorescence polarization (AID 588442); assay type: functional, cell-based; settings: Homo sapiens
HEK293 [44] = assay: membrane integrity loss in HEK cells – cell-based, fluorescence, cytotoxicity control for IDE activator project, dose response (AID 588440); assay type: functional; settings: Homo sapiens;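 also: cytotoxicity by LDH release measuring loss of membrane integrity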
[45] = molecular target: T3, G-protein coupled receptor 55; assay: inhibition of LPI-stimulated GPR55 beta-arrestin translocation – imaging, U2OS, beta-arrestin-GFP, LPI agonist, primary screen (AID 2013); assay type: functional;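 also: antagonist potency measured as reduced agonist-driven arrestin aggregation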
Insulin-degrading enzyme [46] = molecular target: T4, Insulin-degrading enzyme (Homo sapiens, UniProt P14735); assay: cellular IDE activation of Abeta substrate cleavage – fluorescence polarization, HEK cells, dose response (AID 588439); assay type: functional, cell-based
T4 sequence (P14735 whole entry): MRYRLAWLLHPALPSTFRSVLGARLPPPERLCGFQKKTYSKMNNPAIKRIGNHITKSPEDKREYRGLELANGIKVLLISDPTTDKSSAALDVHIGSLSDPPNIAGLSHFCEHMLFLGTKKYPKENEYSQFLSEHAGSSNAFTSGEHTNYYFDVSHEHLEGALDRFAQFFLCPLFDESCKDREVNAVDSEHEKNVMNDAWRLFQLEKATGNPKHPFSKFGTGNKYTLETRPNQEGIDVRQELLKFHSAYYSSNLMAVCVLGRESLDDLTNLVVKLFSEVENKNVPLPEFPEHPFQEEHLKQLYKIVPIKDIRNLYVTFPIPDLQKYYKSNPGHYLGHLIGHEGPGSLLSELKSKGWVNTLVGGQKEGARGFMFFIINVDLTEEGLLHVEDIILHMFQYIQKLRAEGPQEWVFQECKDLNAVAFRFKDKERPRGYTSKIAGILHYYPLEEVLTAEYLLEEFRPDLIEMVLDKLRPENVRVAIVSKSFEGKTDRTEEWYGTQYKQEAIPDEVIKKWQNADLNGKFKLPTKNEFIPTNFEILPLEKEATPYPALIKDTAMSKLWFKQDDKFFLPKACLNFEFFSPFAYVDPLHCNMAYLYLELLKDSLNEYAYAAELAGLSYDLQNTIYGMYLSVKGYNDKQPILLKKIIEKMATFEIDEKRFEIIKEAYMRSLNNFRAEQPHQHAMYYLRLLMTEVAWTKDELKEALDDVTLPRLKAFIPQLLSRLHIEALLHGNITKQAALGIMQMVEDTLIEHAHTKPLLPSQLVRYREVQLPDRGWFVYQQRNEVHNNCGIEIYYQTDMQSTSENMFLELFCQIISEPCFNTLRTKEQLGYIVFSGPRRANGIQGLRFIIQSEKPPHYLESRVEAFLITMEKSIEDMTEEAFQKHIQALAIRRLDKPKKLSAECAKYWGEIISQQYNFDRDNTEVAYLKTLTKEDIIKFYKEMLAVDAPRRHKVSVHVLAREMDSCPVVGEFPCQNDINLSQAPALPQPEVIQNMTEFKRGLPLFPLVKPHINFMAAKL

Insulin-degrading enzyme [47] = molecular target: T4, Insulin-degrading enzyme; assay: recombinant IDE activation, cell-free – biochemical, fluorescence polarization, counter-screen for IDE activator project, dose response (AID 588681)
[48] = THP-1 cell cytotoxicity, cytotoxicity control, set 4 (AID 504911); assay type: functional; settings: Mycobacterium tuberculosis
[49] = Vero cell cytotoxicity, dose response, cytotoxicity control for M. tuberculosis growth inhibitor project, Vero cells, purified and synthesized compounds, set 4 (AID 504854); assay type: functional; settings: Mycobacterium tuberculosis
[50] = Vero cell viability loss – purified and synthesized compounds, set 6, cytotoxicity control for M. tuberculosis inhibitor project, dose response (AID 588445); assay type: functional; settings: Mycobacterium tuberculosis
[51] = THP-1 cell cytotoxicity, cytotoxicity control, set 5 (AID 588443); assay type: functional

c1ccc(C2CCc3[nH]ncc32)cc1 (stereo not given)
active: Ki [1] 39.8 µM | Ki [2] 31.6 µM | Ki [3] 20 µM | Ki [4] 39.8 µM | Ki [5] 12.6 µM | Ki [6] 79.4 µM | Ki [7] 50.1 µM | Ki [8] 39.8 µM

CC(C)c1cc(=O)[nH]c2[nH][nH]c(=O)c12
inactive: Ki [1] > 50.1 µM | Ki [12] > 79.4 µM | Ki [22] > 100 µM | Ki [7] > 100 µM
active: Ki (Focal adhesion kinase 1) 79.4 µM | Ki (Aurora kinase A) 15.8 µM | Ki [9] 12.6 µM | Ki [10] 31.6 µM | Ki [11] 31.6 µM | Ki (Activated CDC42 kinase 1) 25.1 µM | Ki [13] 63.1 µM | Ki [14] 15.8 µM | Ki [15] 100 µM | Ki [16] 63.1 µM | Ki [4] 31.6 µM | Ki [17] 63.1 µM | Ki [18] 63.1 µM | Ki [19] 15.8 µM | Ki [20] 20 µM | Ki [21] 63.1 µM | Ki [23] 20 µM | Ki [24] 15.8 µM | Ki [25] 79.4 µM | Ki [5] 5.01 µM | Ki (Aurora kinase B) 63.1 µM | Ki [6] 63.1 µM | Ki [26] 10 µM | Ki [27] 63.1 µM | Ki [28] 100 µM | Ki [8] 15.8 µM

CCn1c(SCC(=O)NCc2ccco2)nnc1-c1ccccc1O
inactive: IC50 [29] > 99 µM | IC50 [30] > 99 µM

COc1ccccc1[N+]1=N[C-](c2ccc([N+](=O)[O-])cc2)CC1c1ccccc1 (stereo not given)
inactive: IC50 (Beta-lactamase [31]) > 59.6 µM | IC50 (Beta-lactamase [32]) > 59.6 µM
active: EC50 [33] 1.4 µM | EC50 [34] 1.8 µM | EC50 [35] 1.7 µM | EC50 [36] 1 µM | EC50 [37] 400 nM | EC50 [38] < 500 nM | EC50 [39] 200 nM

CN(C)c1ccc(-c2c(-c3ccc4[nH]nc(N)c4c3)nnn2Cc2ccccc2)cc1
inactive: Ki [40] > 10 µM | Ki [41] > 3.16 µM
active: Ki [1] 0.631 µM | Ki [15] 0.0794 µM | Ki [42] 25.1 nM

CCN(CC)C1=CC2=CC(=C(C#N)C#N)CCC2CC1 (stereo not given)
inactive: EC50 (HEK293 [43]) > 54.7 µM | IC50 (HEK293 [44]) > 89.2 µM | EC50 (Insulin-degrading enzyme [46]) > 54.7 µM | EC50 (Insulin-degrading enzyme [47]) > 54.7 µM
active: IC50 (Beta-lactamase [31]) 3.32 µM | IC50 (Beta-lactamase [32]) 1.34 µM | IC50 [45] 3 µM

O=C(CSc1nc2c(c(=O)[nH]1)CCC2)NC1CCCCC1
active: CC50 [48] > 100 µM | CC50 [49] > 100 µM

CCC(C)NC(=O)CSc1nc2ccccc2c(=O)[nH]1 (stereo not given)
active: CC50 [50] > 100 µM | CC50 [51] > 100 µM
